Laboratory results reported in US7498311B2, “Treatment of migraine” (New England Medical Center Hospitals, Inc., priority 1995, dated 2009).

Test system: migraine episodes in epileptic patients
Assay: Anti-migraine activity in epileptic patients (two case reports, daily topiramate)
Assay type: in vivo, human
Description: Patient 1, an epileptic, suffered from complex partial seizures and frequent episodes of migraine, some of which were temporally related to their seizures. Seizures and migraines were incompletely responsive to large doses of calcium channel blockers added to their anti-epileptic drug regimen. Patient 2 suffered from complex partial seizures and frequent, severe migraine episodes, requiring regular use of sumatripan. Patient 1 took topiramate daily for 18 months. Patient 2 took topiramate daily for 10 months.

CC1(C)O[C@@H]2[C@@H](CO[C@@]3(COS(N)(=O)=O)OC(C)(C)O[C@@H]23)O1 [topiramate, 2,3:4,5-bis-O-(1-methylethydine)-β-D-fructopyranose sulfamate]
improvement in migrainous episodes (Patient 1 (epileptic, complex partial seizures, frequent migraine), 600 mg/d): substantial improvement in migrainous episodes
migrainous episodes (Patient 1, after taking 800 mg/d, verapamil, nimodipine and cimetidine withdrawn): had not experienced any migrainous episodes
adverse effects (Patient 1, daily for 18 months): did not experience any adverse effects
control of migraine episodes (Patient 1, daily for 18 months, except for one migrainous aura, all calcium channel blockers withdrawn): nearly completely controlled
improvement of migraine headaches (Patient 2 (epileptic, complex partial seizures, frequent severe migraine), 400 mg/d): substantial improvement of their migraine headaches
frequency of migraine headaches (Patient 2, after taking 200 mg/d): substantially less frequent migraine headaches
migraine status after the sixth month (Patient 2, daily for 10 months): migraine-free thereafter until the tenth month
migraine episodes in the fifth and sixth months of use (Patient 2, during brief cessation of their propanolol therapy): several episodes of basilar migraine without headache
use of sumatriptan rescue medication (Patient 2, once taking 300 mg/d): eliminating the average use of 2 administrations of sumatriptan per week
